Values quoted from earlier work as cited in patent US20250057795A1 (priority 2023, published 2025).
Read-outs that look alike come from different tables or passages of the source. Values belong to the molecule of their own block, whether it stands above or below them.

Assays:
[1] = compared with Levodopa; due to increased solubility
GPR143 [2] = biological target: T1, GPR143 (Homo sapiens, UniProt P51810); conditions: retinal pigment epithelial cells
GPR143 [3] = biological target: T1, GPR143
GPR143 [4] = biological target: T1, GPR143; conditions: same site as L-DOPA

T1 sequence (P51810 whole entry): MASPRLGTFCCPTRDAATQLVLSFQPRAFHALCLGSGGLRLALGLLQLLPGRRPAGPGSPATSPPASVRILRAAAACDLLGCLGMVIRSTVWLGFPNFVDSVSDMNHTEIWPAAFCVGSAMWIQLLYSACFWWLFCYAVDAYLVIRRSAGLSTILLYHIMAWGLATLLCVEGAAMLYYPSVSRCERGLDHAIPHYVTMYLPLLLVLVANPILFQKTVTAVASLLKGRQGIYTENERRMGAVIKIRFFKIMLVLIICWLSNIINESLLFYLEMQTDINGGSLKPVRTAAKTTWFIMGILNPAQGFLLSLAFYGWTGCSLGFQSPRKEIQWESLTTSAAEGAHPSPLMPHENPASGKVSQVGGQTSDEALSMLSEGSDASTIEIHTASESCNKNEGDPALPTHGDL

ocular penetration [1]: increased ocular penetration
Structure (SMILES): CCOC(=O)[C@@H](N)Cc1ccc(O)c(O)c1 [Etilevodopa]

release / production of VEGF (and exosomes) (GPR143 [2]): downregulates the production of VEGF
release of PEDF (GPR143 [2]): significantly upregulates
release of PEDF (GPR143 [2]; listed as L-DOPA): stimulated the release of PEDF
need for anti-VEGF injections (GPR143 [3]; continued Levodopa therapy, compared to historical controls): decreased need for anti-VEGF injections
vision (GPR143 [3]; new onset nAMD, naive to anti-VEGF, 1 month): improved vision
Structure (SMILES): N[C@@H](Cc1ccc(O)c(O)c1)C(=O)O [Levodopa]

water solubility: practically insoluble
Structure (SMILES): COc1ccc2[nH]cc(CCNC(C)=O)c2c1 [Melatonin]

affinity for GPR143 (GPR143 [4]): near-equal affinity to L-DOPA
Structure (SMILES): NCCc1ccc(O)c(O)c1 [dopamine]
release / production of VEGF (and exosomes) (GPR143 [2]): stimulated the release of VEGF and exosomes
